Counter-ions that a name gives are not always drawn.
What was measured:
[1] = tested on: bacterial strains that express the class D cephalosporinase OXA-15; assay: Standard BLI potentiation MIC / synergy MIC (sMIC) assays run in the presence of a β-lactam, OXA-15 expressing strains; format: cell-based, E. coli; conditions: BLI in combination with a β-lactam; comparison with Avibactam (comparator compound CCC)
Source text: (§1) Unless otherwise indicated, the activity of the BLI compounds can be described by the MIC value obtained from a Synergy MIC assay or a BLI potentiation assay (e.g as described herein), both of which are run in the presence of a β-lactam.
(§2) A set of β-lactamase expressing isogenic E. coli strains was constructed by cloning a β-lactamase gene into a customized derivative of pBR322 (GenBank Accession Number J01749) and transforming the engineered plasmids into E. coli. The NdeI restriction site within the plasmid backbone of pBR322 was removed to generate pBR322 ΔNdeI. The pBR322 ΔNdeI vector itself, minus the blaTEM-1 gene, was amplified using two primers: (1) pBR-Pbla 5′-cgcatatgactettectttttcaatattattg-3, SEQ ID 1, a primer with an engineered NdeI restriction site at the 3′ end of the blaTEM-1 promoter and (2) pBR-vec-1 5′-[…]-3′, SEQ ID 2, a primer with an engineered BamHI restriction site at the 3′ end of the blaTEM-1 open reading frame. The chloramphenicol resistance gene, cat, was generated by PCR amplification from pKD3 (GenBank Accession Number AY048742) using primers with an engineered NdeI restriction site at the 5′ end (Pbla-cat 5′-[…]-3′, SEQ ID 3) and an engineered BamHI restriction site at the 3′ end (Vec-1-cat 5′-[…]-3′, SEQ ID 4) of the resistance gene. The two PCR products, pBR322 ΔNdeI and cat were ligated together generating pBR-CBST (pBR322 ΔNdeI ΔTEM-1::cat Seq. ID 5) which retains both the pBR322 tetracycline resistance cassette, tetA, and the plasmid origin of replication but the blaTEM-1 gene was replaced by the cat gene.
(§3) Using this engineering strategy a number of plasmids producing β-lactamase genes from different classes (see below) were generated using synthetic genes with an engineered NdeI restriction site at the 5′ end and BamHI restriction site at the 3′ end of each gene (GenScript). Both the synthetic β-lactamase genes and cat gene were ligated into the NdeI/BamHI sites of the pBR322 ΔNdeI PCR product and transformed into electrocompetent E. coli ElectroMax DH10B (Invitrogen/Life Technologies). E. coli DH10B harboring the recombinant plasmids were selected on LB agar (supplemented with 25 μg/mL tetracycline) and single isolated colonies were then inoculated into 5 mL LB media (supplemented with 25 μg/mL tetracycline), and incubated at 37° C. with aeration (250 rpm) for 18 hrs. The cultures were frozen back at −80° C. in 20% glycerol. The DNA sequence of the cloned β-lactamase genes was confirmed. The β-lactamase gene expression in the recombinant E. coli strains was driven by the blaTEM-1 promoter in the pBR-CBST plasmid and was characterized by MIC profiling of the E. coli recombinant strains against comparator β-lactam/BLI combinations in broth microdilution assay.
(§4) The experimental protocol was performed according to Clinical and Laboratory Standards Institute (CLSI) guidelines with modifications as described below (CLSI guidelines can be derived from the CLSI document M07-A9 published in January 2012: “Methods for Dilution Antimicrobial Susceptibility Tests for Bacteria That Grow Aerobically; Approved Standard-Ninth Edition”).
(§5) To prepare for MIC testing, frozen glycerol stocks of clinical isolates (Klebsiella pneumoniae, Eschericia coli, Enterobacter spp, Citrobacter spp, or Pseudomonas aeruginosa) were used to streak for isolated colonies on rich, non-selective, tryptic soy agar containing 5% sheep's blood (TSAB). Frozen glycerol stocks of laboratory engineered, isogenic E. coli strains, which contain cloned β-lactamase expressing plasmids were used to streak for isolated colonies on rich, selective LB agar supplemented with 25 μg/mL tetracycline to maintain the plasmid. All strains were incubated at 37° C. for 18-24 hrs.
(§6) On the day of testing, primary cultures were started by scraping off 5-10 colonies from the TSAB plates containing clinical strains or the tetracycline supplemented LB plates containing engineered strains. […]

[2] = tested on: bacterial strains that express KPC β-lactamases; assay: Standard BLI potentiation MIC / synergy MIC (sMIC) assays run in the presence of a β-lactam, KPC expressing strains; format: cell-based; conditions: more active for at least one KPC strain and/or better spectrum of activity than Avibactam; BLI in combination with a β-lactam
Source text: as §1, §2, §3, §4, §5, §6

With `N[C@H]1C[C@H](c2nnc([C@@H]3CC[C@@H]4CN3C(=O)N4OS(=O)(=O)O)o2)C1` [Compound 727, (2S,5R)-2-(5-((1r,3S)-3-aminocyclobutyl)-1,3,4-oxadiazol-2-yl)-7-oxo-1,6-diazabicyclo[3.2.1]octan-6-yl hydrogen sulfate] the “activity against bacterial strains that express the class D cephalosporinase OXA-15, compared with Avibactam” value [1] was “more active than Avibactam” and the “activity and/or spectrum of activity against bacterial strains that express KPC β-lactamases, compared with Avibactam” value [2] was “more active than Avibactam”.

`N[C@H]1C[C@@H](Cc2nnc([C@@H]3CC[C@@H]4CN3C(=O)N4OS(=O)(=O)O)o2)C1` [Compound 728, (2S,5R)-2-(5-(((1s,3R)-3-aminocyclobutyl)methyl)-1,3,4-oxadiazol-2-yl)-7-oxo-1,6-diazabicyclo[3.2.1]octan-6-yl hydrogen sulfate] was tested, and the “activity against bacterial strains that express the class D cephalosporinase OXA-15, compared with Avibactam” value [1] was “more active than Avibactam” and the “activity and/or spectrum of activity against bacterial strains that express KPC β-lactamases, compared with Avibactam” value [2] was “more active than Avibactam”.

In the case of `N[C@@H]1CC[C@H](c2nnc([C@@H]3CC[C@@H]4CN3C(=O)N4OS(=O)(=O)O)o2)C1` [Compound 729, (2S,5R)-2-(5-((1S,3R)-3-aminocyclopentyl)-1,3,4-oxadiazol-2-yl)-7-oxo-1,6-diazabicyclo[3.2.1]octan-6-yl hydrogen sulfate], the “activity against bacterial strains that express the class D cephalosporinase OXA-15, compared with Avibactam” value [1] is reported as “more active than Avibactam” and the “activity and/or spectrum of activity against bacterial strains that express KPC β-lactamases, compared with Avibactam” value [2] is reported as “more active than Avibactam”.

`N=C(N)NCC(O)Cc1nnc([C@@H]2CC[C@@H]3CN2C(=O)N3OS(=O)(=O)O)o1` (stereo partly drawn) [Compound 730, (2S,5R)-2-(5-(3-guanidino-2-hydroxypropyl)-1,3,4-oxadiazol-2-yl)-7-oxo-1,6-diazabicyclo[3.2.1]octan-6-yl hydrogen sulfate] was tested, and the “activity against bacterial strains that express the class D cephalosporinase OXA-15, compared with Avibactam” value [1] was “more active than Avibactam” and the “activity and/or spectrum of activity against bacterial strains that express KPC β-lactamases, compared with Avibactam” value [2] was “more active than Avibactam”.

With `N=C(N)NC[C@@H](O)c1nnc([C@@H]2CC[C@@H]3CN2C(=O)N3OS(=O)(=O)O)o1` [Compound 731, (2S,5R)-2-(5-((R)-2-guanidino-1-hydroxyethyl)-1,3,4-oxadiazol-2-yl)-7-oxo-1,6-diazabicyclo[3.2.1]octan-6-yl hydrogen sulfate] the “activity against bacterial strains that express the class D cephalosporinase OXA-15, compared with Avibactam” value [1] was “more active than Avibactam” and the “activity and/or spectrum of activity against bacterial strains that express KPC β-lactamases, compared with Avibactam” value [2] was “more active than Avibactam”.

For `N=C(N)NC[C@H](O)c1nnc([C@@H]2CC[C@@H]3CN2C(=O)N3OS(=O)(=O)O)o1` [Compound 732, (2S,5R)-2-(5-((S)-2-guanidino-1-hydroxyethyl)-1,3,4-oxadiazol-2-yl)-7-oxo-1,6-diazabicyclo[3.2.1]octan-6-yl hydrogen sulfate], the “activity against bacterial strains that express the class D cephalosporinase OXA-15, compared with Avibactam” value [1] was “more active than Avibactam” and the “activity and/or spectrum of activity against bacterial strains that express KPC β-lactamases, compared with Avibactam” value [2] was “more active than Avibactam”.

With `CNCCCc1nnc([C@@H]2CC[C@@H]3CN2C(=O)N3OS(=O)(=O)O)o1` [Compound 734, (2S,5R)-2-(5-(3-(methylamino)propyl)-1,3,4-oxadiazol-2-yl)-7-oxo-1,6-diazabicyclo[3.2.1]octan-6-yl hydrogen sulfate] the “activity against bacterial strains that express the class D cephalosporinase OXA-15, compared with Avibactam” value [1] was “more active than Avibactam” and the “activity and/or spectrum of activity against bacterial strains that express KPC β-lactamases, compared with Avibactam” value [2] was “more active than Avibactam”.

For `NCCCCc1nnc([C@@H]2CC[C@@H]3CN2C(=O)N3OS(=O)(=O)O)o1` [Compound 735, (2S,5R)-2-(5-(4-aminobutyl)-1,3,4-oxadiazol-2-yl)-7-oxo-1,6-diazabicyclo[3.2.1]octan-6-yl hydrogen sulfate], the “activity against bacterial strains that express the class D cephalosporinase OXA-15, compared with Avibactam” value [1] was “more active than Avibactam” and the “activity and/or spectrum of activity against bacterial strains that express KPC β-lactamases, compared with Avibactam” value [2] was “more active than Avibactam”.

`O=C1N2C[C@@H](CC[C@H]2c2nnc(CCNCCO)o2)N1OS(=O)(=O)O` [Compound 736, (2S,5R)-2-(5-(2-((2-hydroxyethyl)amino)ethyl)-1,3,4-oxadiazol-2-yl)-7-oxo-1,6-diazabicyclo[3.2.1]octan-6-yl hydrogen sulfate] was tested, and the “activity against bacterial strains that express the class D cephalosporinase OXA-15, compared with Avibactam” value [1] was “more active than Avibactam” and the “activity and/or spectrum of activity against bacterial strains that express KPC β-lactamases, compared with Avibactam” value [2] was “more active than Avibactam”.

`CC(C)(N)Cc1nnc([C@@H]2CC[C@@H]3CN2C(=O)N3OS(=O)(=O)O)o1` [Compound 737, (2S,5R)-2-(5-(2-amino-2-methylpropyl)-1,3,4-oxadiazol-2-yl)-7-oxo-1,6-diazabicyclo[3.2.1]octan-6-yl hydrogen sulfate] was tested, and the “activity against bacterial strains that express the class D cephalosporinase OXA-15, compared with Avibactam” value [1] was “more active than Avibactam” and the “activity and/or spectrum of activity against bacterial strains that express KPC β-lactamases, compared with Avibactam” value [2] was “more active than Avibactam”.

`N=C(N)Nc1nnc([C@@H]2CC[C@@H]3CN2C(=O)N3OS(=O)(=O)O)o1` [Compound 738, (2S,5R)-2-(5-guanidino-1,3,4-oxadiazol-2-yl)-7-oxo-1,6-diazabicyclo[3.2.1]octan-6-yl hydrogen sulfate] was tested, and the “activity against bacterial strains that express the class D cephalosporinase OXA-15, compared with Avibactam” value [1] was “more active than Avibactam” and the “activity and/or spectrum of activity against bacterial strains that express KPC β-lactamases, compared with Avibactam” value [2] was “more active than Avibactam”.

`N=C(N)NC1(Cc2nnc([C@@H]3CC[C@@H]4CN3C(=O)N4OS(=O)(=O)O)o2)CC1` [Compound 739, (2S,5R)-2-(5-((1-guanidinocyclopropyl)methyl)-1,3,4-oxadiazol-2-yl)-7-oxo-1,6-diazabicyclo[3.2.1]octan-6-yl hydrogen sulfate] was tested, and the “activity against bacterial strains that express the class D cephalosporinase OXA-15, compared with Avibactam” value [1] was “more active than Avibactam” and the “activity and/or spectrum of activity against bacterial strains that express KPC β-lactamases, compared with Avibactam” value [2] was “more active than Avibactam”.

With `O=C1N2C[C@@H](CC[C@H]2c2nnc([C@H]3[C@@H]4CNC[C@@H]43)o2)N1OS(=O)(=O)O` [Compound 740, (2S,5R)-2-(5-(3-azabicyclo[3.1.0]hexan-6-yl)-1,3,4-oxadiazol-2-yl)-7-oxo-1,6-diazabicyclo[3.2.1]octan-6-yl hydrogen sulfate] the “activity against bacterial strains that express the class D cephalosporinase OXA-15, compared with Avibactam” value [1] was “more active than Avibactam” and the “activity and/or spectrum of activity against bacterial strains that express KPC β-lactamases, compared with Avibactam” value [2] was “more active than Avibactam”.

`N=C(N)N1CC(Cc2nnc([C@@H]3CC[C@@H]4CN3C(=O)N4OS(=O)(=O)O)o2)C1` [Compound 741, (2S,5R)-2-(5-((1-carbamimidoylazetidin-3-yl)methyl)-1,3,4-oxadiazol-2-yl)-7-oxo-1,6-diazabicyclo[3.2.1]octan-6-yl hydrogen sulfate] was tested, and the “activity against bacterial strains that express the class D cephalosporinase OXA-15, compared with Avibactam” value [1] was “more active than Avibactam” and the “activity and/or spectrum of activity against bacterial strains that express KPC β-lactamases, compared with Avibactam” value [2] was “more active than Avibactam”.

For `O=C1N2C[C@@H](CC[C@H]2c2nnc(CCC3CNC3)o2)N1OS(=O)(=O)O` [Compound 742, (2S,5R)-2-(5-(2-(azetidin-3-yl)ethyl)-1,3,4-oxadiazol-2-yl)-7-oxo-1,6-diazabicyclo[3.2.1]octan-6-yl hydrogen sulfate], the “activity against bacterial strains that express the class D cephalosporinase OXA-15, compared with Avibactam” value [1] was “more active than Avibactam” and the “activity and/or spectrum of activity against bacterial strains that express KPC β-lactamases, compared with Avibactam” value [2] was “more active than Avibactam”.

Source: US8962844B2, “1,3,4-oxadiazole and 1,3,4-thiadiazole β-lactamase inhibitors” (priority 2012, dated 2015)
